The target in this experiment is T1, Gag-Pol polyprotein [588-1027]/[588-1147] (Human immunodeficiency virus 1, UniProt P04585).
T1 construct: 588-1027; 588-1147
The experiment can be described thus: HIV-1 RT Assay. As to conditions: pH 8.2; 37 °C. An excerpt: The IC50 of reverse transcriptase is the concentration that inhibits 50% of recombinant HIV-1 RT RNA-directed DNA polymerase activity in vitro.

Each structure is given as a SMILES string. Bounds are passed on as bounds.

As to `O=C1Nc2c(cc(F)c(F)c2F)C(C#CC2CC2)(C(F)(F)F)O1` (stereo not drawn) [4-(2-cyclopropylethynyl)-6,7,8-trifluoro-4-(trifluoromethyl)-2,4-dihydro-1H-3,1-benzoxazin-2-one], the half-maximal inhibitory concentration (IC50) (in general, the point on the concentration scale where inhibition reaches its midpoint) was above 2000 nM.

Regarding `O=C1Nc2ccc(-c3ccccc3)cc2C(C#CC2CC2)(C(F)(F)F)O1` (stereo not drawn) [4-(2-cyclopropylethynyl)-6-phenyl-4-(trifluoromethyl)-2,4-dihydro-1H-3,1-benzoxazin-2-one], the concentration for half-maximal inhibition (IC50) is above 2000 nM.

Consider `O=C1Nc2c(Cl)cc(Cl)cc2C(C#CC2CC2)(C(F)(F)F)O1` (stereo not drawn) [6,8-dichloro-4-(2-cyclopropylethynyl)-4-(trifluoromethyl)-2,4-dihydro-1H-3,1-benzoxazin-2-one], for which the half-maximal inhibitory concentration (IC50) was above 2000 nM.

The values are drawn from BindingDB's records for doi:10.1016/s0960-894x(99)00486-2 (Dupont Pharmaceuticals, 1999).
